The target in one data set is Furin (Homo sapiens, UniProt P09958). Put plainly: Fluorescent peptide. Format: biochemical. As to conditions: read-out: In vitro IC50, Furin; 20 nM enzyme, 20 μM Pyr-RTKR-AMC.
The next data set relates to Fetal human NPCs. The data set is classed as cell-based.
The test system of data set [1] is ZIKV (Asian strain, FSS13025). Put plainly: ZIKV infection of human fetal neural progenitor cells. The data set is classed as cell-based, Zika virus. The note with it: compound up to 100 μM; for Inhibition of ZIKV infection of hfNPCs (in words): MOI 0.1, 4 days; for Cytotoxicity in hfNPCs (in words): Fig. 7A.
On the set-up of data set [2]: species or system mice. As to conditions: mouse, in vivo, ip, 10 mg/kg.
The next data set has as its target ZIKV NS2B-NS3pro (Zika virus, UniProt A0A024B7W1). Put plainly: Fluorescent peptide. Format: biochemical. As to conditions: read-out: IC50, ZIKV cleavage activity; Fig. 4A.

Entries after “also recorded” stand apart in the source; their conditions may differ. A value given as a limit tells only on which side of the number the result lay.

Furin, sequence (P09958 108-794): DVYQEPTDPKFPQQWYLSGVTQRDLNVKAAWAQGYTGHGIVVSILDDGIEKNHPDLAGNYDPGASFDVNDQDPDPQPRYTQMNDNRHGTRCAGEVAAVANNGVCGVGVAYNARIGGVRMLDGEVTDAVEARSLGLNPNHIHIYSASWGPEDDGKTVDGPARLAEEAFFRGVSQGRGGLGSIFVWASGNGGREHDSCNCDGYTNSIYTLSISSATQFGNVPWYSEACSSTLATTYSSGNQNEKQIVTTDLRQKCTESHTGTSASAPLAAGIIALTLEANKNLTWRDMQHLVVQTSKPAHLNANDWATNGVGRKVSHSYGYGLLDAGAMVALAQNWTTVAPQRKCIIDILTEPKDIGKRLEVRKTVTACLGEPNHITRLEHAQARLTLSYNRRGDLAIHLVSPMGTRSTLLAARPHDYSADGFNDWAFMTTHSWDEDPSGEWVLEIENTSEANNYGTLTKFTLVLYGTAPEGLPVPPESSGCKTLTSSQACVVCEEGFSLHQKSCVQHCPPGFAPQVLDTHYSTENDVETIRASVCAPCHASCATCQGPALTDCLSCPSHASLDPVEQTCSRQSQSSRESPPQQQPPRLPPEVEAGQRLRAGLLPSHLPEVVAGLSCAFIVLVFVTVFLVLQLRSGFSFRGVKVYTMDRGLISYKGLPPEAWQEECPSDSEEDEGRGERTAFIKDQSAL

Take `Clc1cc(OCc2nnc3sc(Cc4ccccc4)nn23)c(Cl)cc1OCc1nnc2sc(Cc3ccccc3)nn12` [NSC716898]: the IC50 at Furin was more than 100 µM. For the same compound, the “Cytotoxicity (TC50)” value with Fetal human NPCs came out at 235.8 µM.
The corresponding values for `Fc1cc(C2=Nn3c(COc4ccc(Cl)cc4Cl)nnc3S/C2=C\c2ccc(-c3ccc(Cl)cc3)o2)c(Cl)cc1Cl` [NSC719147] are more than 100 µM and 160.3 µM.
On to `Nc1cc(N)c(N=Nc2ccc(S(=O)(=O)Nc3nccs3)cc2)cc1N=Nc1ccc(S(=O)(=O)Nc2nccs2)cc1` [NSC86314], for which the IC50 at Furin was more than 100 µM. In addition, in the data set on Fetal human NPCs, the “Cytotoxicity (TC50)” value amounted to 212.5 µM. In data set [1], the “Inhibition of ZIKV infection of hfNPCs (in words)” value was “little or no inhibition” and the “Cytotoxicity in hfNPCs (in words)” value is given as “more cytotoxic”.
As for `Clc1nc2n[nH]nc2nc1Cl` [NSC157058], the IC50 on Furin was more than 100 µM. Moreover, in the data set with Fetal human NPCs, the “Cytotoxicity (TC50)” value came out at 257.4 µM. For the same compound, the “Cytotoxicity in hfNPCs (in words)” value in data set [1] is “without demonstrating significant cytotoxicity; also recorded: without significant cellular toxicity”. Also, the Plasma half-life in data set [2] is reported as ~ 20 min.
In the case of aprotinin, the IC50 at ZIKV NS2B-NS3pro was approximately 0.07 µM.
Regarding `Clc1ccc(-c2nn3c(COc4cc(Cl)c(OCc5nnc6sc(-c7ccc(Cl)cc7)nn56)cc4Cl)nnc3s2)cc1` [NSC716897], the IC50 at Furin was more than 100 µM. For the same compound, the “Cytotoxicity (TC50)” value in the data set with Fetal human NPCs amounted to 178.4 µM.
Turning to `Clc1ccc(-c2nn3c(COc4cccc(OCc5nnc6sc(-c7ccc(Cl)cc7)nn56)c4)nnc3s2)cc1` [NSC716903], the IC50 at Furin was more than 100 µM. In addition, the “Cytotoxicity (TC50)” value in the data set with Fetal human NPCs was 127.8 µM. Further, in data set [1], the “Inhibition of ZIKV infection of hfNPCs (in words)” value is on record as “little or no inhibition” and the “Cytotoxicity in hfNPCs (in words)” value is on record as “more cytotoxic”.
Take `CC(=O)C(N=Nc1ccc(S(=O)(=O)Nc2ccccn2)cc1)C(=O)Nc1ccc(Cl)cc1` (stereo not drawn) [NSC134189]: the IC50 at Furin was more than 100 µM. For the same compound, the “Cytotoxicity (TC50)” value with Fetal human NPCs turned out to be 132.3 µM.

The record behind these values is PMC5558795 (Antiviral research, 2017).
